From publication PMC11373198, “In vitro efficacy of next-generation dihydrotriazines and biguanides against babesiosis and malaria parasites” (Antimicrobial Agents and Chemotherapy, 2024)
“Also recorded” adds a separate entry of the source. Like-named read-outs stand apart in the source and are kept apart here.

Columns and labels:
[1] = in vivo; cited from earlier work
[2] = biological target: T1, B. microti DHFR-TS (Babesia microti, UniProt A0A1R4AAV1); set-up: method as in PMID 37055610; details: recent studies; cited from earlier work
[3] = test system: B. duncani; set-up: method as in PMID 37055610; details: previous studies; read-out: IC50 against B. duncani; cited from earlier work
[4] = biological target: T2, B. duncani DHFR-TS (Babesia duncani, UniProt A0AAD9UQZ8); set-up: method as in PMID 37055610; details: recent studies; cited from earlier work
[5] = test system: B. duncani (WA-1); test: In vitro growth inhibition of B. duncani in human erythrocytes (SYBR Green-I); assay type: cell-based, Babesia duncani; details: continuous in vitro culture in human erythrocytes, read-out: IC50 B. duncani
[6] = test system: B. duncani (WA-1); test: In vivo efficacy in mouse model of lethal B. duncani infection; set-up: species or system C3H/HeJ mice
Procedure: The finding that JPC-2067 is effective against B. duncani in vitro led us to investigate the activity of its prodrug JPC-2056 in the mouse model of lethal infection (C3H/HeJ mice) ([57]). […] To evaluate the efficacy of JPC-2056, two groups of 5 female mice each were infected with 1 × 10^4 B. duncani-infected erythrocytes and at day 1 post-infection (DPI-1) received either a vehicle (PEG-400) or 30 mg/kg of JPC-2056 administered orally once a day for 10 days. […] However, parasitemia in these mice continued to increase over time reaching peak levels at DPI-12 (Fig. 3A and B). These animals succumbed to lethal B. duncani infection at DPI-13 (Fig. 3A and C).
(§1) Both C3H/HeJ and CB17/SCID mice aged 5–6 weeks (4 to 5 mice per group in each of the studies described herein) were injected intravenously with (1 × 10^4 iRBCs) of B duncani (WA-1) and B. microti (LabS1) parasites, respectively. The infected mice were treated by oral gavage over 10 days (DPI −1 to 10). During the treatment, each mouse received 100 µL of either vehicle (PEG-400) or prodrug JPC-2056 (30 mg/kg). Percent parasitemia was determined by counting at least 3,000 RBCs from Giemsa-stained […] blood smears.

[7] = biological target: T2, B. duncani DHFR-TS; test: Enzyme inhibition assay: DHFR activity of purified DHFR-TS; assay type: biochemical
Procedure: (§2) The inhibition of DHFR activity with selected JPC derivatives was measured as previously described ([59]). Briefly, the purified enzyme (0.1 µM) (supporting information) (Fig. S7) was incubated with increasing concentrations of JPC-2067 or JPC-2056 in a reaction buffer containing 300 µM DHF and 300 µM NADPH. OD340 reduction rate (OD340/min) was measured for further calculation. The % inhibition was calculated using the formula:
(§3) =1−((OD340/min)sample−(OD340/min)negative control)/((OD340/min)positive control−(OD340/min)negative control)
(§4) The IC50 was determined from a sigmoidal dose-response curve using GraphPad Prism version 9.1.2.
(§5) Dihydrofolate reductase-thymidylate synthase (DHFR-TS) gene from B. duncani (BdDHFR-TS BdWA1_001462) and B. microti (BmDHFR-TS BMR1_02g03680) were cloned into pMAL-c4x by GenScript USA Inc. Both enzymes were expressed as fusion proteins with N’-terminal maltose binding protein (MBP) tag. Constructs of pMAL-c4x-BdDHFR-TS and pMAL-c4x-BmDHFR-TS were transformed by heat shock into E. coli BL-21(DE3). E. coli BL-21(DE3) harboring pMAL-c4x-DHFR-TS was grown overnight in 2 ml LB ampicillin (100 µg/mL). Cultures were diluted 100-fold in fresh LB medium with 0.2% glucose and grown to A600 of ~0.5 at 37°C. DHFR-TS expression was induced by the addition of 0.5 mM isopropyl thiogalactoside (IPTG) followed by growth for overnight at 16°C or at room temperature (RT). The cells were harvested by centrifugation (8,000 × g × 10 min, 4°C), washed by resuspension in water, and re-centrifuged. Cells were used directly for purification or kept frozen at -20°C. Prior to enzyme purification, cells were re-suspended in binding buffer containing 25 mM Tris-HCl pH 8, 500 mM NaCl, 0.5% glycerol, and 50mM L-arginine. Cells were supplemented benzonase DNAse (250U/µl) and 3-((3-cholamidopropyl) dimethylammonio)-1-propanesulfonate (CHAPS) (0.002%) and were disrupted by sonication on ice using Omni Sonic Ruptor 400 Ultrasonic Homogenizer (15-sec burst at 70% amplitude, 3 times, with 30-sec cooling intervals). A soluble supernatant was prepared by centrifugation (16,000 × g × 20 min) of the cells sonicate.
(§6) Recombinant DHFR-TSs were purified from the clear cell extract supernatant using amylose resin (NEB), methotrexate-agarose beads, and in some cases size exclusion chromatography (SEC). Briefly, soluble supernatant was incubated with amylose beads in binding buffer with gentle agitation for 1h at 4°C. Following enzyme adsorption, the affinity matrix was transferred to a column and unbound proteins were removed by washing with binding buffer. Purified enzymes were eluted with elution buffer containing 10 mM maltose. Amylose elution fractions were loaded onto MTX-agarose resin and purified DHFR-TS enzymes were eluted using 2 mM dihydrofolic acid (DHF). […]

[8] = biological target: T1, B. microti DHFR-TS; test: as above; assay type: biochemical
Procedure: as §2, §3, §4, §5, §6

[9] = test system: HepG2; test: Cytotoxicity on human cell line (MTT); assay type: cell-based; details: 72 h
Procedure: (§7) HeLa, HepG2, HEK293, and HCT116 cell lines were obtained from the American Type Culture Collection (ATCC) and maintained in Dulbecco’s modified Eagle’s medium (DMEM) (Invitrogen 11995–065) containing 25 mM glucose, 1 mM sodium pyruvate, and supplemented with 5 mM HEPES, 10% FBS, and penicillin-streptomycin (50 U/mL penicillin, 50 µg/mL streptomycin). Cells were seeded in a 96-well tissue culture plate (20,000 cells per well) and allowed to adhere for 24 hours, after which they were treated with a 12-step 2-fold serial dilution of each drug starting at 1 mM as the highest final concentration. Cells maintained in the medium supplemented with either 0.1% or 10% DMSO were used as negative and positive vehicle controls, respectively. The plates were incubated at 37 °C for 72 h, after which each well was incubated with 0.5 mg/mL of MTT reagent (MP Chemicals #02102227) for 4 h in the dark at 37 °C. The formazan crystals formed by living cells were solubilized with the addition of 100 µL of DMSO to each well. We measured the OD590nm using a SpectraMax plate reader. From the obtained OD values, percent cell viability was estimated by normalizing to the mean of 10% DMSO wells (set as 100% toxicity) and mean of the vehicle control wells (set as 0% toxicity). Dose-response curves were plotted using GraphPad Prism version 9.1.2.

[10] = test system: HCT116; test: Cytotoxicity on human cell line (MTT); assay type: cell-based; details: HCT-116, 72 h
Procedure: as §7

[11] = test system: HeLa; test: Cytotoxicity on human cell line (MTT); assay type: cell-based; details: 72 h
Procedure: as §7

[12] = test system: HEK293; test: Cytotoxicity on human cell line (MTT); assay type: cell-based; details: 72 h
Procedure: as §7

[13] = test system: B. microti (LabS1); test: In vivo efficacy in SCID mouse model of B. microti infection; set-up: species or system CB17/SCID mice
Procedure: Building on the promising efficacy of JPC-2056 against B. duncani parasites in vivo, we extended our investigation to assess the efficacy of this compound against B. microti (ATCC LabS1) in the SCID (severely combined immunodeficient) mouse model of infection following inoculation with a 1 × 10^4 infected erythrocytes.
as §1

[14] = test system: human cell lines (HepG2, HCT-116, HEK-293, and HeLa); test: Cytotoxicity on human cell lines, average / overall, and therapeutic index; assay type: cell-based; details: up to 900 µM, HCT-116, HepG2, HEK-293
[15] = 30 mg/kg orally once a day for 10 days
[16] = 0.1 µM enzyme, 300 µM DHF, 300 µM NADPH

T2 sequence (A0AAD9UQZ8 entry or part of it): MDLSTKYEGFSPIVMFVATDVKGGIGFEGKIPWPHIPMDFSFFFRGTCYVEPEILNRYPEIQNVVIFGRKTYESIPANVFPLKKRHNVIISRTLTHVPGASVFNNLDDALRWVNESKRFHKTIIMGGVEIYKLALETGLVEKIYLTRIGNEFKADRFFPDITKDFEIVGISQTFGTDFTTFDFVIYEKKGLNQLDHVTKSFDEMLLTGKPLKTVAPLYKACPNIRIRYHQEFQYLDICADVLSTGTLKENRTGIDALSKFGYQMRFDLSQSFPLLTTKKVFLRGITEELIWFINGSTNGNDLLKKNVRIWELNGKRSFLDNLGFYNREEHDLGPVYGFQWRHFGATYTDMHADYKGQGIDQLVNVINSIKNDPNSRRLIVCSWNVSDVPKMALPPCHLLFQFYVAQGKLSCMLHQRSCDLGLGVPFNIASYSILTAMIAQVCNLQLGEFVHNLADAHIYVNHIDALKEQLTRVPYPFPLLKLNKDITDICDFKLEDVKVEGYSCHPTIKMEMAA
T1 sequence (A0A1R4AAV1 entry or part of it): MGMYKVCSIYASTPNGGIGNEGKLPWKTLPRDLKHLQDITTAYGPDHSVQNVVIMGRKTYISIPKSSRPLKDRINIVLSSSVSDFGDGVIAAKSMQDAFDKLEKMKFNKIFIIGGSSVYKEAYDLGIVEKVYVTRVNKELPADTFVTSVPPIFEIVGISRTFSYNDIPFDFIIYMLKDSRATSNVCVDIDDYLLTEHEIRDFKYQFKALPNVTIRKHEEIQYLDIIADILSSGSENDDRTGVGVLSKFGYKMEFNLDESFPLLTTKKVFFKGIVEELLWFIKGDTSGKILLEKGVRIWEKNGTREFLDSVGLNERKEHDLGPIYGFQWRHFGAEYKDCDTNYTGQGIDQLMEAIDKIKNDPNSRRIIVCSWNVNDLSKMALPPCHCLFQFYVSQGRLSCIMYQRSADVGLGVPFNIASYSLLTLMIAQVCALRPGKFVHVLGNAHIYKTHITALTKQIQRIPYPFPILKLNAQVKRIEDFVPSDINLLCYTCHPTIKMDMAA

Row | Compound | IC50 ([5]; Babesia duncani, Erythrocyte) [µM] | IC50 [5] [µM] | IC50 [9] [µM] | IC50 [10] [µM] | IC50 [11] [µM] | IC50 [12] [µM] | cytotoxicity (effect on human cell lines) [14] | further results
1 | CC1(C)N=C(N)N=C(N)N1OCCCOc1cc(Cl)c(Cl)cc1Cl [WR99210] |  |  |  |  |  |  |  | bioavailability [1]: poor bioavailability; gastrointestinal tolerability [1]: caused gastrointestinal complications; inhibition of B. microti DHFR-TS activity [2]: inhibits the activity; IC50 [3]: 0.0005 µM; inhibition of B. duncani DHFR-TS activity [4]: inhibits the activity
2 | CC(C)NC(=N)NC(=N)NOCCCOc1ccc(OC(F)(F)F)cc1Cl [JPC-2056] | 0.8694 ± 0.004 | 0.869 | 1000 | 1000 | > 900 | 1000 | no discernible effect | day animals succumbed to lethal infection [6, 15]: 13 DPI; parasite emergence [6, 15]: delay in parasite emergence; parasitemia compared to vehicle-treated mice ([6]; 30 mg/kg orally once a day for 10 days (DPI-1 to 10)): reduced peak parasitemia; inhibitory activity against B. duncani DHFR-TS ([7]; Fig. S3A): no discernible inhibitory activity; inhibitory activity against B. microti DHFR-TS ([8]; Fig. S3B): no discernible inhibitory activity; adverse effects ([13]; 30 mg/kg once a day for 10 days): without observable adverse effects; outcome of B. microti infection ([13]; 30 mg/kg once a day for 10 days (DPI-1 to 10)): clearance of infection with no parasites detected up to DPI-45; also recorded: elimination of parasites
3 | CC1(C)NC(=N)NC(=N)N1OCCCOc1ccc(OC(F)(F)F)cc1Cl [JPC-2067] | 0.0089 ± 0.002 | 0.00893 | 1150 | 1000 | > 900 | 1000 | no discernible effect | EC50 [7, 16]: 0.001 µM; EC50 [8, 16]: 0.0147 µM
